{
  "source": "patent US20020151588A1",
  "about": "“Dissociated glucocorticoid receptor antagonists for the treatment of glucocorticoid associated side effects” (priority 2000, published 2002)",
  "key": {"[1]": {"tested_on": "PMA-induced neutrophils influx in mice ear", "assay": "PMA-induced ear edema in mice (myeloperoxidase)", "type": "in vivo", "conditions": "for Myeloperoxidase (treated-untreated ear) ± S.E.M.: 24 hours after PMA", "experimental": "(§1) Female albino mice (Han:NMRI) obtained form Harlan and weighing about 20-25 g were used. The animals were provided with standardized pellet diet (Altromin 8013) and had tap water freely available. The animals were accommodated in a climate room with a 12-hour light/dark cycle and kept in groups.\n(§2) All test compounds were administered orally (0.2 ml/10 g body weight (bw) ) in a dose of 100 mg/kg p.o. The compounds were “dissolved” in 0.2% hydroxypropylmethylcellulose and olive oil mixed 1:1 (v/v).\nMice were lightly anaesthetized by ether and 50 ng PMA (5 μl) were applied to each side of the left ear. […] The animals were sacrificed by ether 24 hours later, and a biopsy (diameter 8 mm) was punched out from both ears to assess an increase of neutrophils in the left ear compared with the right ear. Tissue samples were homogenized in 1 ml 0.5% HTAB (Hexadecyl-trimethyl-ammonium-bromide; Sigma H-5882; dissolved in 0.05 M phosphate buffer, pH 6.0) using a tissue homogenizer (IKA-Ultraturrax T5; Janke & Kunkel, Staufen/Breisgau) at 30000 RPM for 15 seconds under cooling. After centrifugation (16000 g, 5 min) the supernatants were frozen until processing for myeloperoxidase (MPO). Determination in the supernatants for MPO, a neutrophil marker enzyme, served as a quantitative index for the neutrophil accumulation. MPO was determined spectrophotometrically at 450 nm using a microplate version of the method of Bradley (1982) and microplate reader (Vmax; Molecular Devices, Palo Alto) suitable for kinetic measurements. The values are expressed as increase in milli optical densities per min (m O.D./min) (Table 1a and b)."}, "[2]": {"tested_on": "tyrosine aminotransferase (TAT) in mice liver", "assay": "TAT induction in mice liver", "type": "in vivo", "conditions": "for TAT-induction ± S.E.M.: mice liver, 8 hours after administration", "experimental": "as §1, §2\nEight hours after compounds were administered the animals were killed and a punch (diameter 8 mm) was taken from the liver and immediately frozen in liquid nitrogen. The weighed liver punches were thawed for 3 minutes and homogenized after the addition 1 ml of phosphate buffer (pH 7.6) using a tissue homogenizer as described above. After centrifugation the supernatants were frozen at −20° C. until processing. For processing the samples were thawed and protein was determined using a kit employing 96 well microtiterplates commercially available from Fa. Pierce (No 23225). The activity of tyrosineaminotransferase (TAT) was determined in the supernatant, which was diluted 1:100 in phosphate buffer. The reaction is started by the addition of tyrosine in pyrodoxal-5-phosphate and α ketoglutaric acid at pH 7.6 and incubated for 30 minutes at 37° C. The reaction is stopped by the addition of 10 M KOH and a further incubation of 30 minutes is allowed for the formation of p-hydroxy-benzylaldehyde, which can be measured at 492 nm using a microplate reader. The values (optical densities) are calculated with respect to the protein concentration (O.D./mg protein) (Table 1a and b)."}, "[3]": {"tested_on": "LPS-induced IL-8 secretion in U-937 cells", "assay": "GR-mediated inhibition of LPS-induced IL-8 secretion in U-937 cells", "type": "cell-based, human", "conditions": "1 μg/ml LPS", "experimental": "U-937 cells were incubated for 4 days in RPM11640 medium containing 10% CCS (charcoal treated calf serum). […] Control cells were treated with 0.1% DMSO.\nEighteen hours later the IL-8 concentration in the cell supernatant was measured by ELISA, using the “OptEIA human IL-8 set” (Pharmingen, Cat.No. 2654KI) (FIG. 5a).\nThe steroidal not dissociated GR/PR antagonist RU486 was used as control (FIG. 5b)."}, "[4]": {"tested_on": "tyrosine aminotransferase (TAT) in rat hepatoma cells", "assay": "Induction of tyrosine aminotransferase (TAT) in H4-II-E-C3 rat hepatoma cells", "type": "cell-based", "experimental": "H4-II-E-C3 rat hepatoma cells were incubated overnight in 96 well plates (20,000 cells/200 μl/well) in EMEM medium containing 10% heat inactivated FBS (fetal bovine serum). […] Control cells were treated with 0.1% DMSO. After 18 hours, the cells were lysed in a buffer containing 0.1% Triton X-100 and the TAT activity was measured in a photometric assay using tyrosine and -keto g lutarate as substrates (FIG. 3a).\nThe steroidal not dissociated GR/PR antagonist RU486 was used as control (FIG. 3b)."}, "[5]": {"tested_on": "ICAM-promoter in HeLa cells", "assay": "Inhibition of TNF-α induced activation of the ICAM-promoter (luciferase) in HeLa cells", "type": "cell-based, human", "conditions": "20 ng/ml TNF-α", "experimental": "HeLa cells were stably co-transfected with a construct containing a 1.3 kb fragment of the human ICAM-promoter (−1353 to −9 relative to the transcription start site, cloned in front of the luciferase gene and the pcDNA3.1 plasmid (Invitrogen) which constitutively express the resistance for the antibioticum geneticin. Clones with best induction of the ICAM-promoter were selected and used for further experiments. Cells were transferred to 96 well plates (20,000 cells/100 μl/well) in DMEM medium supplemented with 3% CCS. On the following day the activation of the ICAM-promoter was induced by addition of 20 ng/ml recombinant TNF-α (R&D System, Cat. No. 210-TA). […] Control cells were treated with DMSO only. Twenty four hours later the cells were lysed with cell lysis reagent (Promega, Cat. No. E1531), luciferase assay reagent (Promega, Cat. No. E1501) was added and flash luminescence was measured using a BMG luminometer (FIG. 6a).\nThe steroidal not dissociated GR/PR antagonist RU486 was used as control (FIG. 6b)."}, "[6]": {"tested_on": "MMTV-(mouse mammary tumor virus) promoter in HeLa cells", "assay": "Stimulation of MMTV promoter (luciferase) in HeLa cells", "type": "cell-based", "experimental": "HeLa cells stably co-transfected with the pHHLuc-construct containing a fragment of the MMTV-LTR (−200 to +100 relative to the transcription start site) cloned in front of the luciferase gene and the pcDNA3.1 plasmid (Invitrogen) constitutively expressing the resistance for the antibioticum geneticin. Clones with best induction of the MMTV-promoter were selected and used for further experiments.\nCells were cultured overnight in DMEM medium w/o phenol red supplemented with 3% CCS (charcoal treated calf serum) and then transferred to 96 well plates (20,000 cells/100 μl/well). […] Control cells were treated with DMSO only. Twenty four hours later the cells were lysed with cell lysis reagent (Promega, Cat. No. E1531), luciferase assay reagent (Promega, Cat. No. E1501) was added and the flash luminescence was measured using a BMG luminometer (FIG. 4a).\nThe steroidal non-selective GR/PR antagonist RU486 was used as control (FIG. 4b)."}, "[7]": {"tested_on": "croton-oil induced ear edema, carrageenan-induced paw edema; systemic side-effects of glucocorticoids", "assay": "In vivo co-administration with dexamethasone or prednisolone in inflammation models"}, "recombinant human GR": {"molecular_target": "recombinant human GR (Homo sapiens, UniProt P04150)", "sequence (P04150 whole entry, other chains not shown)": "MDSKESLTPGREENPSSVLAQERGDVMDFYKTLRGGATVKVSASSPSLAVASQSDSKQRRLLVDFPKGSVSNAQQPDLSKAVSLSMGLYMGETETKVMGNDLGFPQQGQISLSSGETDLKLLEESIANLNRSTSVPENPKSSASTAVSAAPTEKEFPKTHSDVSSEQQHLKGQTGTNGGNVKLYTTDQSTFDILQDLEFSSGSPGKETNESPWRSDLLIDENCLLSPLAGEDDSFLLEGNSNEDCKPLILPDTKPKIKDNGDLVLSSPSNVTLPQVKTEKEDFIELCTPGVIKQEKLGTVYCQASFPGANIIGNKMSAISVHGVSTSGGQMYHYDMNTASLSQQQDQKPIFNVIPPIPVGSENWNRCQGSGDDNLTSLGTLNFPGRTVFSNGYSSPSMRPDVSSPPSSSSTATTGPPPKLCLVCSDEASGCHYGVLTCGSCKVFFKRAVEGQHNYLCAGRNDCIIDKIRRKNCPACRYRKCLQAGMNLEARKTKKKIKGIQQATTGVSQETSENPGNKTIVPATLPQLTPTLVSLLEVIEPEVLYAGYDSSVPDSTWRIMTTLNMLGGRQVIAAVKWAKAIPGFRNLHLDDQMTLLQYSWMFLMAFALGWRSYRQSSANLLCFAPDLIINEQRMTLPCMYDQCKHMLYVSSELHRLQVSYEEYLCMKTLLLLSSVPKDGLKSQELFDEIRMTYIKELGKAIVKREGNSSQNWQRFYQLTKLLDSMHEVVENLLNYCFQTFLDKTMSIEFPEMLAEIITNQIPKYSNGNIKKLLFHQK", "assay": "GR Competitive Binding Assay", "conditions": "after correction for compound determined to be in solution by HPLC analysis; read-out: IC50, competition with [6,7-3H(N)]-dexamethasone for binding to GR", "experimental": "All procedures were performed at 4° C.\nTest compounds were dissolved to 1 mM in neat DMSO and then further diluted to 10×assay concentration in assay buffer supplemented with 10% v/v DMSO."}, "[8]": {"conditions": "co-administered with prednisolone, each 100 mg/kg p.o."}},
  "note": "pIC50: −log10 of the molar value. Values joined by “and” are separate entries in the source; they are usually repeats but may differ in a detail not shown here. Equal values may be shown once.",
  "data": [
    {"smiles": "CC#C[C@]1(O)CC[C@H]2[C@@H]3CCC4=CC(=O)CCC4=C3[C@@H](c3ccc(N(C)C)cc3)C[C@@]21C", "note": "[Mifepristone, 11-[4-Dimethylamino]phenyl-17-hydroxy-17[1-propynyl]estra-4,9-dien-3-one]", "values": [
      {"measurement": "Myeloperoxidase (treated-untreated ear) ± S.E.M.", "setting": "[1]; [8]", "value": "1565 ± 435", "unit": "mO.D./min"},
      {"measurement": "Myeloperoxidase (treated-untreated ear) ± S.E.M.", "setting": "[1]; compound alone 100 mg/kg p.o.", "value": "931 ± 261", "unit": "mO.D./min"},
      {"measurement": "TAT-induction ± S.E.M.", "setting": "[2]; [8]", "value": "6.60 ± 0.38", "unit": "O.D./mg protein"},
      {"measurement": "TAT-induction ± S.E.M.", "setting": "[2]; compound alone 100 mg/kg p.o.", "value": "4.62 ± 0.36", "unit": "O.D./mg protein"}
    ]},
    {"smiles": "C[C@]12C=CC(=O)C=C1CC[C@@H]1[C@@H]2[C@@H](O)C[C@@]2(C)[C@H]1CC[C@]2(O)C(=O)CO", "note": "[Prednisolone]", "values": [
      {"measurement": "Myeloperoxidase (treated-untreated ear) ± S.E.M.", "setting": "[1]; compound alone 100 mg/kg p.o.", "value": "48 ± 13 mO.D./min and 34 ± 17 mO.D./min"},
      {"measurement": "TAT-induction ± S.E.M.", "setting": "[2]; compound alone 100 mg/kg p.o.", "value": "17.75 ± 0.86 O.D./mg protein and 13.45 ± 0.93 O.D./mg protein"}
    ]},
    {"smiles": "COc1cc(C(=O)c2cccc(C)c2)c(Oc2c(Br)cc(CC(=O)O)cc2Br)cc1C(C)C", "note": "[EXRS1370SE]", "values": [
      {"measurement": "agonistic activity in GR-mediated inhibition of LPS-induced IL-8 secretion", "setting": "[3]; 18 hours", "value": "no agonistic"},
      {"measurement": "antagonistic activity in GR-mediated inhibition of LPS-induced IL-8 secretion", "setting": "[3]; IL-8 secretion inhibited with 3e-8 mol/l dexamethasone", "value": "no antagonistic activity"},
      {"measurement": "antagonism of the anti-inflammatory effect of prednisolone in the ear inflammation model", "setting": "[1]; 100 mg/kg p.o.", "value": "does not significantly antagonize"},
      {"measurement": "Myeloperoxidase (treated-untreated ear) ± S.E.M.", "setting": "[1]; [8]", "value": "140 ± 47", "unit": "mO.D./min"},
      {"measurement": "Myeloperoxidase (treated-untreated ear) ± S.E.M.", "setting": "[1]; compound alone 100 mg/kg p.o.", "value": "443 ± 90", "unit": "mO.D./min"},
      {"measurement": "antagonistic activity on dexamethasone-induced TAT-induction", "setting": "[4]; rat hepatoma cells pre-stimulated with dexamethasone 3e-9 mol/l", "value": "shows antagonistic activity"},
      {"measurement": "agonistic activity in induction of tyrosine aminotransferase (TAT)", "setting": "[4]; rat hepatoma cells, 18 hours", "value": "does not show agonistic activity"},
      {"measurement": "agonistic activity in inhibition of TNF-α induced activation of the ICAM-promoter", "setting": "[5]; 24 hours", "value": "no agonistic"},
      {"measurement": "antagonistic activity in inhibition of TNF-α induced activation of the ICAM-promoter", "setting": "[5]; inhibited with 3e-8 mol/l dexamethasone", "value": "no antagonistic activity"},
      {"measurement": "antagonistic activity in stimulation of MMTV promoter", "setting": "[6]; HeLa cells pre-stimulated with 3e-8 mol/l dexamethasone", "value": "antagonistic activity"},
      {"measurement": "agonistic activity in stimulation of MMTV promoter", "setting": "[6]; HeLa cells, 24 hours", "value": "no agonistic"},
      {"measurement": "systemic side-effect of the glucocorticoids (TAT in liver, blood glucose, free fatty acids level, renal function)", "setting": "[7]; co-administration with dexamethasone or prednisolone", "value": "no/reduced a systemic side-effect"},
      {"measurement": "anti-inflammatory activity of the glucocorticoid on co-administration", "setting": "[7]; co-administration with dexamethasone or prednisolone in inflammation models", "value": "retain the anti-inflammatory activity of the glucocorticoid"},
      {"measurement": "pIC50", "setting": "recombinant human GR", "value": 7.16},
      {"measurement": "antagonism of the prednisolone-induced induction of tyrosine aminotransferase in liver", "setting": "[2]; 100 mg/kg p.o., mice", "value": "can antagonize significantly"},
      {"measurement": "TAT-induction ± S.E.M.", "setting": "[2]; [8]", "value": "12.00 ± 1.26", "unit": "O.D./mg protein"},
      {"measurement": "TAT-induction ± S.E.M.", "setting": "[2]; compound alone 100 mg/kg p.o.", "value": "3.85 ± 0.43", "unit": "O.D./mg protein"}
    ]}
  ]
}
